This note sets out measurements from US20180369203A1, “METHODS OF TREATING CANCER BY ADMINISTERING A MEK INHIBITOR IN COMBINATION WITH A PROTEASOME INHIBITOR” (The Jackson Laboratory, priority 2015, published 2018).

The test deals with A2058 cells. Put plainly: A2058 s.c. melanoma xenograft in NOD/SCID mice. It counts as in vivo. How it is done:
FIGS. 6A-N show combined MEK and proteasome inhibition exerts potent tumor-suppressive effects. (A) After treatments with 20 nM AZD6244, 100 nM Bortezomib, or both for 24 hr, viable cells were quantitated by CellTiter® Blue (mean±SD, n=6, ANOVA). (B and C) 1×10^6 A2058 cells were s.c. injected into NOD/SCID mice. After 7 days, mice were treated with DMSO, 5 mg/Kg AZD6244, 0.5 mg/Kg Bortezomib, or the combination via i.p. injection three times a week. Tumor volumes were measured using a caliper weekly (mean±SEM, ANOVA). Tumor growth curves were fitted to exponential growth models to derive tumor-doubling time (DT). Kaplan-Meier survival curve was plotted for each group (Log-rank test). (D) Proteins were detected by immunoblotting, 3 tumors per group. (E) Tumor lysates were used to quantitate AOs, 5 tumors per group (mean±SD, n=3, ANOVA). (F) Tumor lysates were used to seed Aβ1-42 peptides, 5 tumors per group (mean±SD, n=3, ANOVA). (G-H) Tumor sections were stained with CR, 5 tumors per group. Ten random fields were taken for each section. Scale bar: 50 μm. Total CR fluorescence in each field was quantitated using ImageJ and normalized against total nuclei (median, n=50, ANOVA). (I) Following CR staining, tumor sections were visualized under polarized light microscopy. Scale bar: 50 μm. (J) Following staining with AF-specific antibodies (OC), sections of tumors receiving combined treatment were further stained with CR. Scale bar: 50 μm. […] Body weights were monitored weekly (mean±SD, n=10, ANOVA). […]
FIG. 13A-J illustrates combined MEK and proteasome inhibition disrupts proteostasis and impedes in vivo tumor growth. […] Body weights were recorded before xenografting and at sacrifice. […] Quantitation of immunoblotting results in FIG. 6D (mean±SD, n=3, ANOVA). […] Lys48-specific protein ubiquitination and caspase 3 cleavage were measured by immunoblotting in 3 spleens per group.
A2058 cells were s.c. injected into the left flanks of 9-week-old female NOD.CB17-Prkdc/J (NOD/SCID) mice (The Jackson Laboratory). […] Tumor volumes were calculated following the formula 4/3πR^3. […]

As for `CC(C)C[C@H](NC(=O)[C@H](Cc1ccccc1)NC(=O)c1cnccn1)B(O)O` [Bortezomib, bortezomib], for the setting “5 mg/Kg AZD6244, 0.5 mg/Kg Bortezomib or combination, i.p. three times a week”, the “growth of xenografted melanomas” value is listed as “no significant impacts”. For the same molecule, the “HSF1 Ser326 phosphorylation and HSP expression in tumors (stress response)” value (tumor immunoblotting) was “induced”. For the same molecule, the ubiquitination in tumors entry (tumor immunoblotting, 3 tumors per group) is recorded as “slightly elevated”.
